Assay results published in a melting point compilation (Tetko et al.; mined from patent text by program, amines drawn as free bases though some values may be those of a salt).

SMILES	melting point
COc1ccc(C(C)N(C)CCCOc2ccc(S(=O)(=O)c3c(C(C)C)n(C)c4ccccc34)cc2)cc1OC (configuration not stated)	96 °C
Cc1n[nH]c(-c2ccc(Br)cc2)c1NC(=O)c1ccccc1	273 to 274 °C
Cc1cc(C)cc(C(=O)N(N(C(=O)c2ccc3c(c2C)OCCO3)C(=O)N(C)C)C(C)(C)C)c1	60 to 64 °C
COc1ccc(COC(=O)CC(=O)Oc2ccc(-c3cn4c(n3)sc3ccccc34)cc2)cc1	117 to 119 °C
CSc1nccc(-c2c[nH]c(=O)n2-c2ccc(F)cc2)n1	260 to 261 °C
CCCc1c(OCCCCCc2c(Cl)c(Cl)c(Cl)c(OC)c2OC)ccc(C(=O)OC)c1O	84 to 87 °C
CC(C(=O)O)n1cc(-c2ccc(Oc3ccccc3)cc2)c2c(N)ncnc21 (configuration not stated)	240 to 241 °C
CC1(C)CC(NC(=O)Nc2ccccc2)c2cc(C#N)ccc2O1 (configuration not stated)	214 to 215 °C
COc1ccc(-c2cc(-c3ccccc3)[nH]c2C(=O)NCc2ccc(C(=O)NO)cc2)cc1	187 to 188 °C
Cc1ccc(-c2ccc(C(=O)Nc3ccc4cc(CN5CCCC5)cnc4c3F)cc2)cc1	210 to 213 °C
O=C(O)CCC=C(c1ccc(F)cc1)c1ccc(F)cc1	100 °C
COc1ccc(CCOc2cccc(-c3cccc(N)c3)n2)cc1OC	103 to 104 °C
CCOc1c(Nc2cc(C3C(C(=O)OC)=C(C)NC(C)=C3C(=O)OC)ccc2F)c(=O)c1=O	203 to 205 °C
CCc1sc2ccc(C)cc2c1S(=O)(=O)Nc1onc(C)c1Br	176 to 178 °C
COC1(c2cncnc2SC)c2ccccc2CC1(C)C (configuration not stated)	130 to 132 °C
CCCN(CCC)C(=O)CNc1nc(-c2ccccc2)ncc1[N+](=O)[O-]	142 to 143 °C
O=Cc1ccc(OCc2ccccc2)c([N+](=O)[O-])c1	100 to 102 °C
COc1ccc(-c2nc3cccnc3[nH]2)cc1NS(=O)(=O)c1cccs1	252 to 254 °C
O=[N+]([O-])c1cccc2c(O)ccnc12	204 to 206 °C
CCOC(=O)c1ccc(NC)c(C(O)c2ccccc2)c1 (configuration not stated)	132 to 135 °C
CCCC(=O)COS(=O)(=O)c1ccc(C)cc1	33 to 35 °C
COc1cc2c(cc1C=O)C(C)(C)CO2	75 to 76 °C
Cc1ccc(-c2c(Cl)nc(-c3ccccc3)nc2NS(=O)(=O)c2ccc(C(C)(C)C)cc2)cc1	249 to 250 °C
Cc1nn(C)c(C)c1Oc1cc(Cl)cc(C#N)c1	114 to 116 °C
COC(=O)C(C)(C)OCc1cc2nc(Cl)ccc2n1S(=O)(=O)c1ccccc1	84 to 87 °C
CC1COc2c(N3Cc4ccc(N)cc4C3)c(F)cc3c(=O)c(C(=O)O)cn1c23 (configuration not stated)	272 to 276 °C

SMILES	melting point
COc1ccc(NC(=O)c2cc(-c3ccc(F)cc3F)ccc2O)cc1OC	186 to 187 °C
COC(=O)c1ccc(OCCC2CC(=O)N(c3ccc(Cl)cc3)C2)cc1 (configuration not stated)	126 to 128 °C
O=C(CC1(c2ccccc2)CCCC1)C(=O)Nc1ccc2c(c1)COC2=O	140 to 144 °C
COc1ccc(NN=C(Sc2ccc(C)cc2C)C(C)=O)cc1	109 to 111 °C
O=C(Cn1c(-c2cccc(Cl)c2)nc2cccnc21)Nc1ccccc1	211 to 212 °C
CC(C)(C)C(=O)C1=C(O)C(=O)N(c2ccc(-c3ccon3)cc2)C1C1CCCCC1 (configuration not stated)	259 to 260 °C
CNC(=O)OCc1c(COC(=O)NC)c2n(c1C)Cc1ccccc1C2	174 to 176 °C
COC(=O)c1nc(SC(F)(F)F)c(N)nc1N	151 to 155 °C
Nc1nc2ccccc2c2c1nc1n2C(C2CCOCC2)COC1 (configuration not stated)	240 to 243 °C
COC(=O)c1ccc(CCCCc2c(C)cc(C)cc2C)cc1	52 to 53 °C
CCCc1nn(C)c2c(=O)n(CCCOc3ccc(OC(C)(C)C(=O)O)cc3)c(C)nc12	158 to 160 °C
CSC1=Nc2ccccc2C2=NCC(Cn3ccnc3)N12 (configuration not stated)	97 to 99 °C
CC(C)(C)OC(=O)NC(NC(=O)OC(C)(C)C)Nc1ccc(CCc2csc(NC(=O)c3ccccc3)n2)cc1	143 to 144 °C
CCCC(=O)Nc1ccccc1C(F)(F)F	76 °C
CSc1nn2c(N3CCN(C)CC3)cc(C)nc2c1S(=O)(=O)c1ccccc1	209 to 210 °C
N#Cc1ccc(-c2csc(Nc3ccccc3O)n2)cc1	278 to 280 °C
CC(=O)n1ncc2c(OCC3CO3)cc(C)cc21 (configuration not stated)	105 to 107 °C
N#CC1c2ccccc2Cc2ccccc21	106 to 108 °C
COc1ccc(N)c(-c2cc3ccccc3[nH]2)c1	97 to 99 °C
Cn1c(=O)c2c(OCc3ccccc3)cccc2n2cnc(-c3noc(C4CC4)n3)c12	221 to 224 °C
COc1cc(C=C(N)C(C)=O)ccc1OCC(O)CNC(C)C (configuration not stated)	139 to 140 °C
Nc1ccc(OCc2ccccc2)cc1C=C(Br)Br	67 to 68 °C
Cc1cccc(CCC(C)O)c1NC(=O)CC1c2ccccc2Oc2ccccc21 (configuration not stated)	167 to 168 °C
CC(C)c1ccc(C(=O)C(c2ccccc2)C2CCCCC2)c(C(C)C)c1OS(N)(=O)=O (configuration not stated)	127 to 137 °C
O=C1OC2(CCC(N3CCN(c4ccc(F)cc4)CC3)CC2)c2cc(F)ccc21 (configuration not stated)	> 250 °C
O=C(c1ccc(-c2cnc3c(c2)N(Cc2cc(F)ccc2F)CCN3)cn1)N1CCOCC1	111 to 113 °C

SMILES	melting point
CCCc1cc(C(O)=S)cc(N)c1Cc1ccccc1	151 to 152 °C
CN(C)c1cccc2c(S(=O)(=O)Nc3ccc(I)nn3)cccc12	176 to 178 °C
O=S1(=O)NC2CCCN2c2ccc(Oc3cccc(-c4nnn[nH]4)c3)cc21 (configuration not stated)	266 to 272 °C
CC(=O)SCC(Cc1ccccc1)NC(=O)OC(C)(C)C (configuration not stated)	92 to 94 °C
C[C@H]1CN(Cc2ccccc2)C[C@H]1NC(=O)OC(C)(C)C (relative stereo)	132 to 133 °C
CNCCc1cc(Br)cc(-c2sccc2C)c1N	68 to 70 °C
COc1cccc(N2CCN(CCn3c(=O)[nH]c4cscc4c3=O)CC2)c1	184 to 186 °C
CC(C)(CO)NS(=O)(=O)c1cccc(NC(=O)c2cnn3c(C(F)(F)F)cc(-c4ccc(C(F)(F)F)c(Cl)c4)nc23)c1	251 °C
CN(C)CCNS(=O)(=O)c1cccc(NC(=O)c2cnn3c(C(F)(F)F)cc(-c4ccc(C(F)(F)F)cc4)nc23)c1	224 °C
CC(=O)SCC(Cc1ccccc1)C(=O)NCc1ccc(C(=O)OCc2ccccc2)cc1 (configuration not stated)	142 to 143 °C
FC(F)(F)c1n[nH]cc1-c1nc(Nc2ccccn2)cs1	204 to 206 °C
CCOC(=O)c1nc2c(=O)[nH]c3cc(C(F)(F)F)ccc3n2c1CBr	247 to 248 °C
CNS(=O)(=O)c1ccsc1C(=O)OC	115 to 122 °C
Cc1oc2c(-n3c(=O)cc(C(F)(F)F)n(C)c3=O)ccc(Cl)c2c1NO	134 to 136 °C
COc1ccc(CN(CCCC#N)Cc2ccc(OC)cc2)cc1	56 to 58 °C
CSc1nc(-c2nnn(C)n2)c(I)c(C(F)(F)F)n1	113 to 118 °C
COc1ccc2[nH]c(C(=O)O)c(-c3ccccc3F)c2c1	206 to 208 °C
Cc1ccc2c(=O)cc[nH]c2c1[N+](=O)[O-]	> 250 °C
S=C=Nc1ccccc1-c1ccc(Cl)cc1	63 °C
CC(Oc1ccc(Oc2ncc(C(F)(F)F)cc2Cl)cc1)C(=O)Nc1ccc(OC(F)(F)F)cc1 (configuration not stated)	140 to 141 °C
Cn1nc(CO)cc1-c1ccccc1	95 to 99 °C
CSc1nc(-c2ccc(Cl)cc2)nc(-c2ccccn2)n1	152 °C
CCOC(=O)C(=O)Nc1cc(C)c(C)cc1[N+](=O)[O-]	109 °C
COC(=O)c1c[nH]cc1-c1cccc(Cl)c1Cl	200 to 201 °C
FC(F)(F)c1cc(-c2ccc(Cl)cc2)[nH]c1C(F)(F)F	72 to 73 °C
OCC1OC(n2cnc3c(OCC4CC4)ncnc32)CC1F (configuration not stated)	100 °C

SMILES	melting point
COc1ccc(C(=O)Nc2ccccc2)cc1NS(=O)(=O)c1cc(Cl)cc(Cl)c1	222 to 228 °C
CC1(C)CN2C(=O)c3ncccc3C(O)(c3ccc(Cl)cc3)C2=N1 (configuration not stated)	257 to 260 °C
O=C(NCc1ccc(Cl)cc1)c1cnc2cc(-n3cccc3)ccc2c1O	> 200 °C
CC(=O)Nc1cccc2c1CCN(C)C2	138 to 139 °C
O=c1[nH]ccn1CC#CCN1CCCC1	99 to 102 °C
Cc1[nH]cnc1CCNC(=NCCSCc1nc[nH]c1C)NC#N	190 to 191 °C
COc1cccc(-c2cccc(Oc3nc(OC)cc(OC)n3)c2C(=O)O)n1	158 to 160 °C
NC(=O)/C=C1/c2cc(F)cc(F)c2CC1O (configuration not stated)	235 to 237 °C
CC(C)(C)C(=O)C(=CC(=O)c1ccc(Cl)cc1)n1cncn1	140 °C
COc1cc2c(c(OC)c1OC)C(C#N)N(C(=O)c1ccccc1)C=C2 (configuration not stated)	158 to 160 °C
COc1ccccc1OCC1NC(C(=O)O)CS1 (configuration not stated)	149 to 150 °C
COC(=O)c1ccc(OCC(=O)c2ccc3c(c2)C(C)(C)CCS3)cc1O	135 to 137 °C
O=C(Nc1ccc(OC(F)(F)F)cc1)N[C@H]1CC[C@@H](Oc2ccc(C(=O)O)cc2)CC1	210 to 212 °C
Cc1c(C(=O)O)cnn1CCO	203 °C
CC(C)(C)[Si](OCCOc1ccc(N)cn1)(c1ccccc1)c1ccccc1	59 to 61 °C
O=c1c2c(Cc3ccccc3)n[nH]c2c2ccncc2n1-c1ccccc1	303 to 307 °C
CN1C(=O)C[C@]2(c3ccccc3)CCCC[C@H]2C1=O (relative stereo)	151 to 153 °C
CCCN1CCC(=O)C2=C1COc1ccc(OC)cc12	97 to 100 °C
CCCCc1ccc(C(=O)Oc2ccc(C=O)cc2)cc1	49.7 °C
COc1cccc(CN2CCc3cc(O)ccc3C2)c1OC	111 to 115 °C
CC(=O)OC1CCC2(C)C(CCC3=C4C(=O)CC(C(C)CCC=C(C)C)C4(C)CCC32)C1 (configuration not stated)	129 to 130 °C
O=C(NC1CCN(CCc2cccc(F)c2)C1)C12CC3CC(CC(C3)C1)C2 (configuration not stated)	87 to 89 °C
Cc1cc(N(C)C)ccc1Br	47 to 49 °C
COc1ccc(C(=O)NNC(=O)C(F)(F)F)cc1	147 to 148 °C
